Several values for one entry are separate records, joined by “and”; a condition that tells them apart may be missing. Identical values can stand only once.

Experiment [1] addresses T1, CD38 (Homo sapiens, UniProt P28907).
T1 sequence (P28907 45-300): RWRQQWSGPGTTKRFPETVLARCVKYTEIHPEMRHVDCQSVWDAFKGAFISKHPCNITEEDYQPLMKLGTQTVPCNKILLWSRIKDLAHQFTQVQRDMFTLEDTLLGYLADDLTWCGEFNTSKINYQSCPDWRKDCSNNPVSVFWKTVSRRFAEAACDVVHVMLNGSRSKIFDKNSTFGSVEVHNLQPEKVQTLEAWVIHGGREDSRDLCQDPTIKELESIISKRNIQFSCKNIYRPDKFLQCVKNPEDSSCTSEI
As to the kind of experiment: Radiochemical measurement of reaction rates (covalent labelling of CD38 by [2′-3H] inhibitor, gel filtration). Type of experiment: binding. The note with it: for kon (radioactivity, radiolabeled inhibitor bound versus time): [2′-3H]βNdR 9 μM, CD38 1.2 μM, gel filtration. The procedure: [2′-^3H]β-1′-nicotinamide-2′-deoxyribose ([2′-^3H]βNdR) was used to measure the covalent interaction of inhibitor with CD38 as follows: 9 μM inhibitor with specific activity of 1233 cpm/nmol was incubated with 1.2 μM CD38 in a volume of 1 ml of 50 mM potassium phosphate (pH 7.5). The reactions were started by enzyme addition, and quenched by freezing in a dry ice/acetone bath after 30, 60, 90, 120, 250, 500, and 1000 sec. Samples were placed on 1 ml gel filtration columns (0° C.) that were used to separate protein from free inhibitor. Columns were cooled on ice, and eluted with cold (0° C.) 10 mM potassium phosphate (pH 7.5) as eluant. Fractions (1 ml) were combined with 9 ml of scintillation fluid, and counted for radioactivity. A sample lacking enzyme, but having the same incubations, was performed as a blank control. A sample using the α-[2′-^3H]nicotinamide-2′-deoxyribose of equal concentration and specific activity, and having the same incubations, was performed as a second control. The observed cpm in the protein peak (fractions 3+4) was fitted to the equation A(t)=A0(1−exp(−kt))+B, where A(t) is the cpm in protein at time t, A0 is the cpm at reaction completion, k is the observed pseudo-first-order rate constant, B is the activity of the blank, and t is the time in seconds.
The covalent interaction of [2′-^3H]β-1′-pyridyl-2′-deoxyribose with CD38 was measured as follows: 25 mM inhibitor with specific activity of 1233 cpm/nmol was incubated with 25.2 μM CD38 in a volume of 50 μl of 50 mM Tricine (pH 7.5). The reactions were started by enzyme addition, and quenched by freezing in a dry ice/acetone bath after 2 h, 7200 s. Samples were placed on (0° C.) 1-ml gel filtration columns (P-10) that were used to separate protein from free inhibitor. Columns were cooled on ice, and eluted with cold (0° C.) 10 mM potassium phosphate (pH 7.5) as eluant. Fractions (1 ml) were combined with 9 ml of scintillation fluid, and counted for radioactivity. A sample lacking enzyme, but undergoing the same incubations, was performed as a blank control. A sample using the α-[2′-^3H]nicotinamide-2′-deoxyribose of equal concentration and specific activity, and the same incubations, was used as a second control. The observed cpm in the protein peak (fractions 3+4) were fitted to the equation A(t)=A0(1−exp(−kt))+B, where A(t) is the cpm in protein at time t, A0 is the cpm at reaction completion, k is the observed pseudo-first-order rate constant, B is the activity of the blank, and t is the time in s.
For orientation: Size exclusion chromatography separates by hydrodynamic size, large species first.

Experiment [2] has as its target T1, CD38. As to the kind of experiment: Determination of Ki and kchem by competitive method (NGD+ substrate, absorbance at 295 nm). It is filed as biochemical. The procedure:
CD38 was used to start reactions containing 1-ml solutions of 50 mM potassium phosphate, 100 μM NGD, and 50, 25, 12.5, 6.25, and 0 μM βNdR. Reactions were initiated with 2 μl of 7 μM CD38, and reaction progress was monitored by measurement of absorbance at 295 nm. The initial slopes were used to determine the Ki value. The time course of absorbance for each sample was fitted to the equation A(t)=vt+(b−v)(1−exp(−kt))/k+A0, where k is the observed rate constant, b is the initial rate, v is the final rate, and A0 is the initial absorbance. The rate constant kchem (FIG. 3) was determined as reported (19).
This mechanism of inhibition was tested by treatment of CD38 with different concentrations of inhibitor in the presence of 50 Km of substrate to establish values for Ki and kchem. In the presence of 100 μM NGD^+, reaction mixtures containing 0 to 50 μM βNdR were initiated by addition of enzyme (FIG. 8).

Experiment [3] has as its target T1, CD38. As to the kind of experiment: CD38 activity and inhibition measurements (time-dependent inactivation, NGD+ to cGDPR, absorbance at 295 nm). Type of experiment: biochemical. As to conditions: for residual enzymatic activity, % of the control: 10 min after treatment of enzyme (500 nM) with excess inhibitor (10 μM), 10 min, 10 µM. The procedure:
[…] Aliquots of the reaction were assayed by placing 5 μl of the reaction mixture into 1 ml of 50 mM HEPES (pH 7.5) containing 100 μM NGD^+, at 30, 60, 90, 120, 180, or 300 sec. The conversion of NGD^+ to cGDPR was monitored by determining absorbance at 295 nm. A reaction mixture lacking inhibitor was used as a control. Activity was determined as a function of time, and fitted to the equation A(t)=[…]^-kt, where A0 is activity at time zero (control), t is time in seconds, and k is the observed pseudo-first-order rate constant. Human CD38 (200 nM) was incubated with β-1'-pyridyl-2'-deoxyribose (25 mM) in a volume of 100 μl of 50 mM Tricine (pH 7.5). Aliquots of the reaction (5 μl) were assayed by placing into 1 ml of 50 mM HEPES (pH 7.5) containing 100 μM NGD^+ at 750, 1500, 2250, 3000, 4000, 8000, and 14400 s. The conversion of NGD^+ to cGDPR was monitored by absorbance at 295 nm. A reaction mixture lacking inhibitor was used as a control. Activity was determined as a function of time, and fitted to the equation A(t)=C+[…]^-kt, where A0 is activity at time zero (control), t is time in s, k is the observed pseudo-first-order rate constant, and C represents uninhibited activity at equilibrium.

The target in experiment [4] is T1, CD38. As to the kind of experiment: Determination of Ki and kchem by competitive method (NGD+ substrate, absorbance at 295 nm). It is filed as biochemical. This is another data set of the same source.
The target of experiment [5] is T2, CD38 (Homo sapiens, UniProt P28907).
T2 sequence (P28907 1-300): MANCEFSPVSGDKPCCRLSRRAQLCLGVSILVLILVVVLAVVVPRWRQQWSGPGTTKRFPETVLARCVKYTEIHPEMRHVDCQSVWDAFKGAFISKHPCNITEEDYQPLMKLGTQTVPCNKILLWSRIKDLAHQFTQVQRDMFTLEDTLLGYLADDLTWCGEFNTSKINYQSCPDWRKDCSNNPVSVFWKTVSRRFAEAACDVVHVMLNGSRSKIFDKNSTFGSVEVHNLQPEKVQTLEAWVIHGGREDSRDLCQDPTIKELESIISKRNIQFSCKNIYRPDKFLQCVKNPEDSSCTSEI
As to conditions: 37° C.; cited from earlier work.

Experiment [6] has as its target T1, CD38. Briefly: Off-rate measurement (recovery of CD38 catalytic activity after inactivation). Type of experiment: biochemical. The procedure: Recovery of CD38 catalytic activity after inactivation with β-1′-nicotinamide-2′-deoxyribose was measured in reaction mixtures containing 500 nM CD38, 50 mM inhibitor, and 15 μM deoxyriboside. After timed intervals, 5 μl of the reaction mixture were added to a 1-ml reaction of 50 mM HEPES (pH 7.5) containing 300 μM NGD^+. A control was also prepared without the inhibitor. Production of cGDPR was determined by monitoring absorbance at 295 nm. The absorbance was fitted to the equation A(t)=vt+(b−v)(1−exp(−kofft))/koff+A0 (19), where koff is the observed rate constant, b is the initial rate, v is the final rate, and A0 is the initial absorbance. Recovery of CD38 catalytic activity after inhibition by βNdR was measured by adding inactivated CD38 to solutions of NGD^+, and monitoring absorbance change at 295 nm for periods of 3-4 h. The recovery process was slow: full catalytic activity was not restored over this time period. However, the measured rate constant for recovery could be measured by regressive fit of the data to the activity recovery equation, A(t)=vt+(b−v)(1−exp(−kofft))/koff+A0, where koff is the observed rate constant, b is the initial rate, v is the final rate, and A0 is the initial absorbance. […] The proposed mechanism of recovery operates through the hydrolytic path (FIG. 4).

[7] abbreviates: listed as β-1′-nicotinamide-2′-deoxyribose.

As to “5′-phospho-1′-β-pyridyl-2′-deoxyribose [5′-phospho-1′-pyridyl-deoxyribose]”, the “covalent attachment of the sugar moiety to the enzyme” value in experiment [1] ([2′-3H] labelled inhibitor, gel-filtration) is on record as “confirmed covalent attachment”. In experiment [2] (5′-phospho derivative, similar studies, read-out: Ki), the Ki was above 200 µM. Also, the “effect of extended incubation on CD38” value in experiment [3] (200 μM inhibitor) is “inhibited the enzyme”. In addition, in experiment [3] (200 μM inhibitor, extended incubations, activity versus time), the “minimum value for kchem” value was at least 0.00022 s⁻¹.
As to `NC(=O)c1ccc[n+]([C@@H]2O[C@H](COP(=O)([O-])OP(=O)(O)OC[C@H]3O[C@@H](n4cnc5c(=O)[nH]c(N)nc54)[C@H](O)[C@@H]3O)[C@@H](O)[C@H]2O)c1` [NGD^+, Nicotinamide guanine dinucleotide, reference compound], the Km in experiment [4] (CD38 substrate) is 2 µM.
Take `NC(=O)c1ccc[n+]([C@@H]2O[C@H](COP(=O)(O)O)[C@@H](O)[C@H]2O)c1` [NMN^+]: the “kcat for hydrolysis (hydrolysis of the covalent intermediate)” value in experiment [5] was 512 s⁻¹.
Consider `OC[C@H]1O[C@@H]([n+]2ccccc2)C[C@@H]1O` [β-pyridyl-deoxyribose, β-1′-pyridyl-2′-deoxyribose], for which the Ki in experiment [4] (50 μM to 50 mM inhibitor, 5 μM (3 Km) NGD+, read-out: Ki for CD38 inhibition) is 11000 µM; in experiment [2] (calculated value, read-out: Kieff (koffKi/kchem)) it was 323 µM. Moreover, the “Kieff relative to Kieff for βNdR” value in experiment [2] (times larger) was 10^5 times. Also, the “extent of inhibition achieved” value in experiment [3] (25 mM inhibitor, limited by long onset times and inhibitor decomposition) is 60-80%. Moreover, the “rate of covalent inactivation, equivalent to kchem” value in experiment [3] (saturating concentration (25 mM), absence of NGD+) came to 0.00017 s⁻¹.
Turning to `NC(=O)c1ccc[n+]([C@H]2C[C@H](O)[C@@H](CO)O2)c1` [βNdR, β-1′-nicotinamide-2′-deoxyribose], the “kon (radioactivity, radiolabeled inhibitor bound versus time)” value was 1540 M⁻¹ s⁻¹ in experiment [1] and 1500 M⁻¹ s⁻¹ in experiment [1] (setting [7]). The Ki was 0.0033 µM in experiment [1] (kon from radioactivity, read-out: Kieff = koff/kon (Radioactivity, koff)); 0.0032 µM in experiment [1] (read-out: Kieff = koff/kon (kon from radioactivity)); 2.5 µM in experiment [2] (100 μM NGD+, 0 to 50 μM inhibitor, listed as β-1′-nicotinamide-2′-deoxyribose, read-out: Ki (competitive, initial slopes)); 1 µM in experiment [2] (100 μM NGD+, 0 to 50 μM inhibitor, read-out: Ki (competitive, initial slopes)); 0.0029 µM in experiment [2] (average of the three Kieff values, read-out: Kieff (Average of values)); 0.0029 µM in experiment [2] (listed as β-D-1′-nicotinamide-2′-deoxyribofuranoside, read-out: Kieff, effective inhibition constant (average)). For the same molecule, the Ki in experiment [2] (read-out: Kieff = Kikoff/kchem) was 0.0004 µM; in experiment [2] (read-out: Kieff, effective inhibition constant (average)) it was 0.0029 µM and 0.002 µM; in experiment [3] (kon from activity decay, read-out: Kieff = koff/kon (Activity, koff)), 0.0051 µM; in experiment [3] (read-out: Kieff = koff/kon (kon from activity decay)) it was 0.005 µM. Besides, the “koff, rate constant for recovery (activity recovery, hydrolysis)” value in experiment [6] (inactivated CD38 added to NGD+, 3-4 h, no nicotinamide) amounted to 5e-06 s⁻¹. Moreover, the “rate of CD38-deoxyribose hydrolysis relative to CD38 ribose 5-phosphate” value in experiment [6] (ratio of hydrolysis rates of covalent intermediates) is 10^−8. The “kchem, rate constant for chemical reaction (competitive onset)” value in experiment [2] (100 μM NGD+, 0 to 50 μM inhibitor, listed as β-1′-nicotinamide-2′-deoxyribose) was found to be 0.0126 s⁻¹. Moreover, the “residual enzymatic activity, % of the control” value is recorded as “less than 5%” in experiment [3] and below 5% in experiment [3] (setting [7]).

In general, Km refers to the substrate concentration at which the rate is half of its maximum.
